Values quoted from earlier work in US7605257B2, “Processes for preparing water-soluble polyethylene glycol conjugates of macrolide immunosuppressants” (Wyeth, priority 2006, dated 2009).
pIC50: −log10 of the molar value.

Test system: various solid tumors
Conditions: typical IC50, inhibitor of tumor growth; read-out: IC50 against various solid tumors

- pIC50: > 7.30
Compound: CO[C@H]1C[C@@H]2CC[C@@H](C)[C@@](O)(O2)C(=O)C(=O)N2CCCC[C@H]2C(=O)O[C@H]([C@H](C)C[C@@H]2CC[C@@H](O)[C@H](OC)C2)CC(=O)[C@H](C)/C=C(\C)[C@@H](O)[C@@H](OC)C(=O)[C@H](C)C[C@H](C)/C=C/C=C/C=C/1C [Rapamycin, rapamycin]
